Laboratory results taken from US20110118304A1, “METHOD FOR TREATING OVER-EATING DISORDERS” (NeuroSearch A/S, priority 2007, published 2011).

Tested on: Diet-Induced Obese Rats
Test: Effect of tesofensine on food-intake in diet-induced obese rats
Format: in vivo, male Sprague-Dawley rats
Conditions: single subcutaneous injection of 1,5 mg/kg at lights out; diet-induced obese rats on high-fat diet; versus vehicle (saline); FIG. 1
Description: These rats were from 3-5 weeks of age only given access to a high-fat diet (#12266B; 31.8% kcal from fat, energy density […], Research Diets, New Jersey). After 17 weeks on high-fat diet, animals were stratified according to body weight. Tesofensine was injected in different doses to male Sprague-Dawley rats. Vehicle (saline), or tesofensine at different doses (from 0,5 mg/kg to 2,0 mg/kg) was administered as a single subcutaneous injection at lights out. The level of food-intake was continuously determined over the next 18 hours in an automated food-delivering system.
In FIG. 1, the level of food-intake over night is illustrated of two groups of animals; receiving either a single dose of 1,5 mg/kg tesofensine (triangles) or vehicle (squares).
In FIG. 2, a relation between increasing doses of tesofensine and the accumulated food-intake over a 18 h observation is shown.

Q: How did the “level of food-intake over night” value turn out when `CCOC[C@@H]1[C@@H](c2ccc(Cl)c(Cl)c2)C[C@@H]2CC[C@H]1N2C` [tesofensine, (1R,2R,3S,5S)-3-(3,4-dichlorophenyl)-2-(ethoxymethyl)-8-methyl-8-azabicyclo[3.2.1]octane] was run?
A: Its value is “inhibits food intake over night”.
